Data on one compound can be found in article PMC11172662, “Anticancer Effect of Hemin through ANO1 Inhibition in Human Prostate Cancer Cells” (International Journal of Molecular Sciences, 2024).

Experiment [1] has as its target T1, ANO1 (anoctamin1, TMEM16A) (Homo sapiens, UniProt Q5XXA6).
T1 sequence (Q5XXA6 1-986): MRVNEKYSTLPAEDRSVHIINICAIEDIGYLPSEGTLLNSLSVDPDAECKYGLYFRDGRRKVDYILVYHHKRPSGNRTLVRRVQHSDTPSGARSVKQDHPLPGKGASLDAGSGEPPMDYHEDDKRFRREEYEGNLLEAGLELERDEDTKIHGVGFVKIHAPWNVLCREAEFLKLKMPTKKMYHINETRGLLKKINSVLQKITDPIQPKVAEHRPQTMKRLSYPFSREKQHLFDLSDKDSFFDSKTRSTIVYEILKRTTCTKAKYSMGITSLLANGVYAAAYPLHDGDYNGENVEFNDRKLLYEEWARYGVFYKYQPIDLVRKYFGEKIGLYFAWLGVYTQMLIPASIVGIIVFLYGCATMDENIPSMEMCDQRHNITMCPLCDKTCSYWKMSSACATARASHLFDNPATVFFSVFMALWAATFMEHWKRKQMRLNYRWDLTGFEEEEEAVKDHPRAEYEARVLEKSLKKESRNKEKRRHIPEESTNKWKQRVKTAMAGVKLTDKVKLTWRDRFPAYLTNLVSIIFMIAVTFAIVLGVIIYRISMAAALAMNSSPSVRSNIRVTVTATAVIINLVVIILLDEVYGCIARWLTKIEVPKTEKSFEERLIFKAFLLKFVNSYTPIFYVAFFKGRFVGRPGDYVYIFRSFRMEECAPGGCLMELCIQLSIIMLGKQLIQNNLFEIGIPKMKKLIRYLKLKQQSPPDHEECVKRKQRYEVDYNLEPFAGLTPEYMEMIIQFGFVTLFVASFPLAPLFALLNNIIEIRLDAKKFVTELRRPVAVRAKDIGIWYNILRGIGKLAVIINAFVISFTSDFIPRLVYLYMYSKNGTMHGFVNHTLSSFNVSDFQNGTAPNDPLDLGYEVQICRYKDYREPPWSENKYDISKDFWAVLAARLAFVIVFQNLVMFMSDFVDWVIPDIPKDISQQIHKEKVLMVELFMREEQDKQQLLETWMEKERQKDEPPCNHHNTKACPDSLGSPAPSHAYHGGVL
Briefly: YFP fluorescence quenching assay in FRT cells expressing human ANO1; confirmed by short-circuit current (PC-3 cells IC50 […]). The experiment is classed as cell-based.

The target of experiment [2] is T2, ANO2 (Homo sapiens, UniProt Q9NQ90).
T2 sequence (Q9NQ90 1-998): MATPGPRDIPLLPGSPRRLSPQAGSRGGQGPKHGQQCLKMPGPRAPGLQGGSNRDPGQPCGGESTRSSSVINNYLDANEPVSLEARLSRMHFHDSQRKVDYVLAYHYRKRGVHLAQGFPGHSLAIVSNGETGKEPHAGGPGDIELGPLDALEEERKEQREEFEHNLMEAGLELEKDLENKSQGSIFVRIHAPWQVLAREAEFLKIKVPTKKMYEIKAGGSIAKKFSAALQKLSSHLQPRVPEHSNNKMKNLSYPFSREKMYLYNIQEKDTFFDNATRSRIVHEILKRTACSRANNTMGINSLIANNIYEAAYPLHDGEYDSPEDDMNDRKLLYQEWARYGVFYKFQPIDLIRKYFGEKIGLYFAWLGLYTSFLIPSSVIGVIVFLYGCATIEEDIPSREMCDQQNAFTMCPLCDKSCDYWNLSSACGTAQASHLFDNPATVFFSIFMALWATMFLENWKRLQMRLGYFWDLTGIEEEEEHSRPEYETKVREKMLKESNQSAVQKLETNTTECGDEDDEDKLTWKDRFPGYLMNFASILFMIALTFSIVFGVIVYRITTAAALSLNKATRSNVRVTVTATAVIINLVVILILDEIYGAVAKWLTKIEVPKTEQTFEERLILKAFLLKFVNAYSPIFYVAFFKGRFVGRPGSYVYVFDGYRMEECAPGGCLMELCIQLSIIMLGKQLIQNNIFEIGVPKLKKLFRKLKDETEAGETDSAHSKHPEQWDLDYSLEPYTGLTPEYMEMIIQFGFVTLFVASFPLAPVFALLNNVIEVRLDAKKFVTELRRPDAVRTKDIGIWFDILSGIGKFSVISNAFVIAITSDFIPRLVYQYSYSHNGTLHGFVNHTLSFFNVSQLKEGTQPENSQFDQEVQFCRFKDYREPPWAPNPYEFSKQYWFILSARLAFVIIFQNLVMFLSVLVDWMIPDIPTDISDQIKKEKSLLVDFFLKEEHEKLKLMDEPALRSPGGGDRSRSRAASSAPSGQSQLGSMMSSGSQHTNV
Briefly: YFP fluorescence quenching assay in FRT cells expressing human ANO2. The experiment is classed as cell-based.

Usually IC50 stands for the midpoint of a concentration-inhibition curve. A higher IC50 goes with weaker potency.

As to `C=CC1=C(C)C2=Cc3c(C=C)c(C)c4[n]3[Fe]([Cl])[n]3c(c(C)c(CCC(=O)O)c3=CC3=NC(=C4)C(C)=C3CCC(=O)O)=CC1=N2` [hemin], the IC50 in experiment [1] was 0.51 µM; in experiment [2] it was 4.09 µM.
